According to patent US20220296566A1, “COMBINATION PRODUCT CONTAINING LIMONOID COMPOUND AND ALPHA-GLUCOSIDASE INHIBITOR” (ZHEJIANG YANGSHENGTANG INSTITUTE OF NATURAL MEDICATION CO., …, priority 2019, published 2022):

What was measured:
Type in all cases: in vivo
[1] = tested on: db/db mice; assay: Blood glucose in mouse type II diabetes model, db/db mice (Example 4); conditions: single agent 0.2 g/kg per day by gavage, two weeks, 1 h after last administration, mean ± SD
Text: (§1) Effects of limonoid compound, acarbose or combination thereof on blood glucose and insulin in mouse type II diabetes model
(§2) In the present embodiment, the limonoid compound was selected from nomilin, deacetylnomilin, nomilin acid, deacetylnomilin acid glycoside, and acarbose single administration group, nomilin single administration group, deacetylnomilin single administration group, nomilin acid single administered group, deacetylnomilin acid glycoside single administration group, and respective combination thereof with acarbose administration groups were set.
Conditions for experimental feeding: as type II diabetes model mice, 6-week-old SPF-grade db/db mice were purchased from the Nanjing Model Biology Institute, and subjected to experimental feeding after 7 days of preliminary feeding. […]
Gavage doses: nomilin at a dose of 0.2 g/kg was gavaged per day for the nomilin group, deacetylnomilin at a dose of 0.2 g/kg was gavaged per day for the deacetylnomilin group, nomilin acid at a dose of 0.2 g/kg was gavaged per day for the nomilin acid group, deacetylnomilin acid glycoside at a dose of 0.2 g/kg was gavaged per day for the deacetylnomilin acid glycoside group, acarbose at a dose of 0.2 g/kg was gavaged per day for the acarbose group, nomilin at a dose of 0.1 g/kg and acarbose at a dose of 0.1 g/kg were simultaneously gavaged per day for the nomilin combination group, nomilin acid at a dose of 0.1 g/kg and acarbose at a dose of 0.1 g/kg were simultaneously gavaged per day for the nomilin acid combination group, deacetylnomilin at a dose of 0.1 g/kg and acarbose at a dose of 0.1 g/kg were simultaneously gavaged per day for the deacetylnomilin combination group, deacetylnomilin acid glycoside at a dose of 0.1 g/kg and acarbose at a dose of 0.1 g/kg were simultaneously gavaged per day for the deacetylnomilin acid glycoside combination group, the gavage volume was 10 mL/kg, and the normal group and the model group were administrated with 10 mL/kg of distilled water. […] The data were expressed as mean and standard deviation. […]

[2] = tested on: STZ mice; assay: Blood glucose in mouse type II diabetes model with pancreatic islet damage and obesity, STZ plus high-fat diet (Example 5); conditions: STZ + high-fat diet ICR mice; single agent 0.5 g/kg per day by gavage, two weeks; 1 h after last administration; mean ± SD
Text: Effects of limonoid compound, acarbose or combination thereof on blood glucose in mouse type II diabetes model with pancreatic islet damage and obesity
In this example, a mouse model of type II diabetes with pancreatic islet damage and obesity was established by multiple modeling ICR mice with a small dose of streptozotocin (STZ), following with continuous high-fat diets (referring to literature: Zhang Jiyuan et al, Study on the effect of three plant extracts on improving glucose and lipid metabolism in type 2 diabetic mice, Food and Machinery, 2016, 32 (12): 142-147). […]
Experimental grouping: 15 male mice were randomly selected as the normal control group, and the remaining mice were subjected to a high-fat diet (high-fat diet formula: cholesterol 1%, egg yolk powder 10%, lard oil 10%, and basic feed 79%, for establishing an obesity mouse model) for consecutive 4 weeks and intraperitoneal injection of STZ at a dose of 35mg/kg for three consecutive days. After one week, the mice were subject to 24 hours of fasting and water deprivation, their fasting blood glucose was measured, and the mice with a blood glucose level of 15 to 25 mmol/L were selected and undifferentiatedly grouped and used in the experiment, continuously subjected to the high-fat diet, 15 mice in each group, and subjected to blood sampling and detection of indicators after 2 weeks of administration. […]

[3] = tested on: db/db mice; assay: Blood glucose in mouse type II diabetes model, db/db mice (Example 2); conditions: single agent 0.04 g/kg per day by gavage, two weeks, 1 h after last administration, mean ± SD
Text: (§3) Effects of limonoid compound, acarbose or combination thereof on blood glucose and leptin in mouse type II diabetes model
(§4) In the present example, db/db mice (line name BKS.Cg-Dock7^m+/+Lepr^db/Nju) were used to perform hypoglycemic efficacy evaluation test of animals (blood glucose level and leptin). The limonoid compound was selected from obacunone, isoobacunoic acid and obacunone glycoside, and acarbose single administration group, obacunone single administration group, isoobacunoic acid single administration group, obacunone glycoside single administered group, and respective combination thereof with acarbose administration groups were set.
(§5) Conditions for experimental feeding: as type II diabetes model mice, 6-week-old SPF-grade db/db mice were purchased from the Nanjing Model Biology Institute, and subjected to experimental feeding after 7 days of preliminary feeding. It should be noted that the conditions for raising the mice were as follows: the temperature was 23±1° C., the humidity was 55±10%, the lights were turned on between 7 am and 7 pm (the lights were turned off at other time), and the mice were allowed to freely take in water and feed. […]

[4] = tested on: db/db mice; assay: Serum leptin by Elisa in db/db mice (Example 2); conditions: single agent 0.04 g/kg per day by gavage, two weeks, mean ± SD
Text: as §3, §4, §5

[5] = tested on: db/db mice; assay: Serum insulin by Elisa in db/db mice (Example 4); conditions: single agent 0.2 g/kg per day by gavage, two weeks, mean ± SD
Text: as §1, §2
as §5, with “feed. The experimental feed was mouse growth-stable feed (GB M2118), and the daily feeding and management of the animals were under the responsibility of the animal security department, which provided the animals with sufficient diet and fresh drinking water daily.” for “feed.”

CC1(C)OC(=O)C[C@H](O)[C@]2(C)[C@H]3CC[C@@]4(C)[C@H](c5ccoc5)OC(=O)[C@H]5O[C@]54[C@]3(C)C(=O)C[C@@H]12 [Deacetylnomilin, deacetylnomilin] showed a Blood glucose value [1] of 11.9 ± 2.9 mmol/L.

With CC(=O)O[C@@H]1CC(=O)OC(C)(C)[C@@H]2CC(=O)[C@]3(C)[C@H](CC[C@@](C)(C(O[C@@H]4O[C@H](CO)[C@@H](O)[C@H](O)[C@H]4O)c4ccoc4)C34OC4C(=O)O)[C@@]12C (stereo partly drawn) [Nomilin glycoside, nomilin glycoside] the Blood glucose value [2] was 12.8 ± 2.9 mmol/L.

CC(=O)O[C@H]1CC(=O)OC(C)(C)[C@@H]2CC(=O)[C@]3(C)[C@H](CC[C@@]4(C)[C@H](c5ccoc5)OC(=O)[C@H]5O[C@]543)[C@@]12C [Nomilin, nomilin] was tested, and the Blood glucose value [1] was 10.1 ± 3.9 mmol/L.

With CC1(C)OC(=O)C=C[C@]2(C)[C@H]3CC[C@@](C)([C@@H](O[C@@H]4O[C@H](CO)[C@@H](O)[C@H](O)[C@H]4O)c4ccoc4)[C@@]4(O[C@@H]4C(=O)O)[C@]3(C)C(=O)C[C@@H]12 [Obacunone glycoside, obacunone glycoside] the Blood glucose value [3] was 13.7 ± 2.9 mmol/L and the Leptin [4] was 28.55 ± 4.00 pg/mL.

Work on nomilin acid yielded an Insulin [5] of 8.08 ± 1.49 pg/mL.
